Results as given in ChEMBL document CHEMBL3763036, “Structural optimization of non-nucleoside DNA methyltransferase inhibitor as anti-cancer agent” (Bioorg Med Chem Lett, 2016).

Columns and labels:
NCI-H292 = test: Antiproliferative activity against human NCI-H292 cells; type: functional, cell-based
[1] = target: DNA (cytosine-5)-methyltransferase 1 (Homo sapiens) (UniProt P26358); test: Inhibition of DNMT1 in human NCI-H292 cells at 50 uM after 48 hrs by Western blot analysis relative to control; type: cell-based
Sequence of DNA (cytosine-5)-methyltransferase 1 (Homo sapiens) (P26358 whole entry): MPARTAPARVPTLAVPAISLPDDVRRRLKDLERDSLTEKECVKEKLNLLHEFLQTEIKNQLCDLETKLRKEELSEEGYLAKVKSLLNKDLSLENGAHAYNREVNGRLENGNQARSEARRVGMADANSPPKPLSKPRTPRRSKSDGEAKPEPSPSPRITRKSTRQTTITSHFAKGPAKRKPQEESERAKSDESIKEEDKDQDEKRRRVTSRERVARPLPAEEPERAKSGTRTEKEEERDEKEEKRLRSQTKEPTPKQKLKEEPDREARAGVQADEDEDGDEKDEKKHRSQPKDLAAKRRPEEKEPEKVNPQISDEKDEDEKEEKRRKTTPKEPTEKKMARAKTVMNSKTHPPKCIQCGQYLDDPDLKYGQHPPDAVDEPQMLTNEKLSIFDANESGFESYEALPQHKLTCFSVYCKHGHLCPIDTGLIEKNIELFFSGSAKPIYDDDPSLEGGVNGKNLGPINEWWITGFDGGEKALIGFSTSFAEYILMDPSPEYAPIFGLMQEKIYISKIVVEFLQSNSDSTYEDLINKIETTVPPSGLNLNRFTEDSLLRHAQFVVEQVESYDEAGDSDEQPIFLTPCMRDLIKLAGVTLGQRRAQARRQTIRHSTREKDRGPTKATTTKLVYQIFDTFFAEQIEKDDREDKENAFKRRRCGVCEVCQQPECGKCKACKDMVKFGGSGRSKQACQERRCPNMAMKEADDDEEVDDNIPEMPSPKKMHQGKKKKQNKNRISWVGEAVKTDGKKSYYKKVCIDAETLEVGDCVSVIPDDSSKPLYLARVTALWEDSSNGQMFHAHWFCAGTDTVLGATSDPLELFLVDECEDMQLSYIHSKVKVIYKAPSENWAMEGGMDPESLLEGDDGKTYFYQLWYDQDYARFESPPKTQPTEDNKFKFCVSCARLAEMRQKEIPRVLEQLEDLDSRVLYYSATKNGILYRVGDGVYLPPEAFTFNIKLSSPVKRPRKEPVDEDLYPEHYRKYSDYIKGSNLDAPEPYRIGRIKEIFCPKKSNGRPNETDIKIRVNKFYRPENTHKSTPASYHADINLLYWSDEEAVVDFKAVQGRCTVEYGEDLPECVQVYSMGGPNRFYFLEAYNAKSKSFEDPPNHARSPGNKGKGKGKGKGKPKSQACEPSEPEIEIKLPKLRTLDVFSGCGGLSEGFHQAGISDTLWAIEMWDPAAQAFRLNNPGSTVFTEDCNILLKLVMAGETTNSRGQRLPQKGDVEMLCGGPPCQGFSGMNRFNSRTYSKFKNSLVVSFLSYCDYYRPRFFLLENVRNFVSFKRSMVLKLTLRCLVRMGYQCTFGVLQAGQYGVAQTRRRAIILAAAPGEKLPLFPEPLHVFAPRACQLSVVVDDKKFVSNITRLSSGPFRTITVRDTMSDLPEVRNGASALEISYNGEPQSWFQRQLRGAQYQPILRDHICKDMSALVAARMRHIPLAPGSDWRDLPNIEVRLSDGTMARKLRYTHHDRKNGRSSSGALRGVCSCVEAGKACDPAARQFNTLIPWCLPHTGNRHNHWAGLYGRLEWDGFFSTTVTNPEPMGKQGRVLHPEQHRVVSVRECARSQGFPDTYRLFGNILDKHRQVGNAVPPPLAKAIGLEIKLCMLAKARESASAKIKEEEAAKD

[2] = target: DNA (cytosine-5)-methyltransferase 1 (Homo sapiens) (UniProt P26358); test: Inhibition of DNMT1 in human NCI-H292 cells at 100 uM after 48 hrs by Western blot analysis relative to control; type: cell-based

Row | SMILES | IC50 (NCI-H292) [µM] | fold change (FC) [1] | fold change (FC) [2]
1 | O=C1/C(=C/c2ccc(O)cc2)NC(=S)N1c1ccc(I)cc1 | 19.7 | – | –
2 | O=C1/C(=C/c2ccc(O)cc2)NC(=S)N1c1ccc(Cl)cc1 | 28.5 | – | –
3 | O=C1N/C(=C\c2ccc(O)cc2)C(=O)N1c1cccc(Br)c1 | > 200 | – | –
4 | O=C1N/C(=C\c2ccc(O)cc2)C(=O)N1c1ccc(Br)cc1 | 69.9 | – | –
5 | COc1ccc(N2C(=O)N/C(=C\c3ccc(O)cc3)C2=O)cc1 | > 200 | – | –
6 | Cc1ccc(N2C(=O)N/C(=C\c3ccc(O)cc3)C2=O)cc1 | 27.9 | 0.32 | –
7 | O=C1N/C(=C\c2ccc(Cl)cc2)C(=O)N1c1ccc(Cl)cc1 | 35.6 | 0.99 | –
8 | O=C(NCC1CCCCC1)c1cccc(N2C(=O)N/C(=C\c3ccc(O)cc3)C2=O)c1 | 17.9 | 0.25 | –
9 | O=C(NCC1CCCCC1)c1ccc(N2C(=O)N/C(=C\c3ccc(O)cc3)C2=O)cc1 | > 200 | – | –
10 | O=C(c1ccc(N2C(=O)N/C(=C\c3ccc(O)cc3)C2=O)cc1)N1CCCC1 | > 200 | – | –
11 | COc1cc(/C=C2\NC(=O)N(c3ccc(Cl)cc3)C2=O)cc(OC)c1OC | > 200 | – | –
12 | O=C(Nc1ccc(Cl)cc1)c1cccc(N2C(=O)N/C(=C\c3ccc(O)cc3)C2=O)c1 | 125 | – | –
13 | O=C(NCc1ccccc1)c1ccc(N2C(=O)N/C(=C\c3ccc(O)cc3)C2=O)cc1 | > 200 | – | –
14 | COc1cccc(N2C(=O)N/C(=C\c3ccc(O)cc3)C2=O)c1 | > 200 | – | –
15 | O=C(O)c1ccc(N2C(=O)N/C(=C\c3ccc(O)cc3)C2=O)cc1 | > 200 | – | –
16 | O=C1N/C(=C\c2ccc(O)cc2)C(=O)N1c1cccc(I)c1 | > 200 | – | –
17 | O=C(c1cccc(N2C(=O)N/C(=C\c3ccc(O)cc3)C2=O)c1)N1CCCC1 | > 200 | – | –
18 | Cc1cccc(N2C(=O)N/C(=C\c3ccc(O)cc3)C2=O)c1 | > 200 | – | –
19 | O=C1N/C(=C\c2ccc(Br)cc2)C(=O)N1c1ccc(Cl)cc1 | 46.6 | – | –
20 | O=C1N/C(=C\c2ccc(O)cc2)C(=O)N1c1ccc(I)cc1 | 25.5 | 0.01 | –
21 | CCOC(=O)c1ccc(N2C(=O)N/C(=C\c3ccc(O)cc3)C2=O)cc1 | > 200 | – | –
22 | O=C(NCc1ccccc1)c1cccc(N2C(=O)N/C(=C\c3ccc(O)cc3)C2=O)c1 | 23.5 | 0.27 | –
23 | O=C(Nc1ccc(Cl)cc1)c1ccc(N2C(=O)N/C(=C\c3ccc(O)cc3)C2=O)cc1 | > 200 | – | –
24 | O=C1N/C(=C\c2ccc3ccccc3c2)C(=O)N1c1ccc(Cl)cc1 | > 200 | – | –
25 | COc1ccc(/C=C2\NC(=O)N(c3ccc(Cl)cc3)C2=O)cc1 | 32.1 | 1.19 | –
26 | O=C(O)c1cccc(N2C(=O)N/C(=C\c3ccc(O)cc3)C2=O)c1 | > 200 | – | –
27 | O=C1N/C(=C\c2ccc(O)cc2)C(=O)N1c1ccc(Cl)cc1 | 41.3 | – | 1.08
